The numbers were not newly measured in article PMC9102399 (Molecules, 2022), which cites them from elsewhere.

Details of data set [1]: method as in earlier work. The settings on record: SD rats.
The conditions of data set [2]: rats, oral; curcumin 500 mg/kg.
For data set [3] the following is noted: beagle dogs.

Molecules are shown by their SMILES.

Take `COc1cc(C=CC(=O)CC(=O)C=Cc2ccc(O)cc2)ccc1O` [CUR II, 4-hydroxycinnamoyl-[4-hydroxy-3-methoxycinnamoyl] methane]: the “t1/2 of oral CUR II” value in data set [1] is “about 5.5 h”.

For `COc1cc(/C=C/C(=O)CC(=O)/C=C/c2ccc(O)c(OC)c2)ccc1O` [curcumin], the “time of maximal plasma concentration” value in data set [2] is reported as 30 min.

With `COc1cc(C=CC(=O)CC(=O)C=Cc2ccc(O)c(OC)c2)ccc1O` [CUR, 1,7-bis [4-hydroxy-3-methoxy-phenyl]-hepta-1,6-diene-3,5-dione], in data set [3], the “oral t1/2 of CUR” value was “about 0.85 h”.
